The values that follow come from PMC4546618, “Casitas B-Lineage Lymphoma RING Domain Inhibitors Protect Mice against High-Fat Diet-Induced Obesity and Insulin Resistance” (PLoS ONE, 2015).

Molecules are shown by their SMILES. Where a SMILES comes first, the peptide text is derived from it. [ ]: non-standard residue; d: D form. Phe(3-F) = N[C@@H](Cc1cccc(F)c1)C(=O)O; Thz = O=C(O)[C@@H]1CSCN1

One data set deals with T1, Cbl (RING) protein (Homo sapiens, UniProt P22681).
T1 construct: including the linker and RING domain (codon 358–457); GST (Glutathione S-Transferase); made in house
T1 sequence (P22681 358-457): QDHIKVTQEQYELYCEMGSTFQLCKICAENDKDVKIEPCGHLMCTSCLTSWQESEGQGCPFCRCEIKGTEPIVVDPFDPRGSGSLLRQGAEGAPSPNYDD
The data set can be described thus: Fluorescence polarization (FP) assay, competition with FITC-βA-PFKPP-NH2 probe. Format: binding. The settings on record: probe FITC-βA-PFKPP-NH2 100 nmol/L, Cbl (RING) protein 3 μmol/L, PBS pH 7.4. As to the method: Peptides and peptide mimetics were purchased from MitenChem (China) with a purity ≥ 98%. Concentrations values of reconstituted peptides were determined by amino acid analysis at the protein core facility (Chengdu Medical College). The recombinant Cbl protein was produced by the Chengdu Medical College Protein Core Facility and was described previously. The c-Cbl (RING) protein, including the linker and RING domain (codon 358–457), was tagged with Glutathione S-Transferase (GST) and purified with GSH-Sepharose (Shanghai Biopharma).
The FP assay was developed and validated previously. Briefly, fluorescein-labeled probe (FITC-βA-PFKPP-NH2, 100 nmol/L) and Cbl (RING) protein (3 μmol/L) were mixed and diluted to the final concentration using 0.01% Triton X-100 in PBS (pH = 7.4). Then, 19 μl of this master mix was loaded to each reaction well. The peptides or peptide mimetics were then loaded to the designated wells (1 μl, 10 μmol/L– 0.078 μmol/L, half-fold dilutions). The total fluorescence and polarization values were measured at an excitation wavelength of 485 nm and an emission wavelength of 538 nm using a ZS-2 plate reader. The data was fitted, and the ΔmP, Kd, and Ki values were estimated, using SigmaPlot 11.0.

In data set [1] the test system is mice fed a high-fat diet. Put plainly: High-fat diet-induced obesity: body weight, food intake, body composition, adipocyte volume. Format: in vivo. The settings on record: daily i.p. 5 mg/kg; for body weight gain vs vehicle, parental and negative control peptide groups: 12-week feeding period; for percentage of perigonadal fat mass / adipocyte volume: 12 weeks; for percentage of perigonadal fat mass: NMR, vehicle 8 ± 0.8%; for adipocyte volume: adipocytes from epididymal fat pad, vehicle 510 ± 42 pL. Here is the method:
(§1) All experiments were approved by the institutional Animal Care and Use Committee (Chengdu Medical College, China). All experiments were carried out in 10-week-old male mice maintained on the C57BL/6 background. All the animals were kept on a 12-h light/dark cycle with free access to food and water.
(§2) Animals (n = 90) were randomly assigned to one of the nine groups (Table 1). Animals were fed ad libitum with a high-fat diet (60% of caloric intake from fat (70% saturated fat), 20% from carbohydrates, and 20% from protein) before experiments and for another 12 weeks during the experiments. Food intake was measured manually on a daily basis. Eight groups of animals were treated with indicated peptides with a daily i.p. injection at 5 mg/kg and one group of animals were treated with vehicle.
Body composition was measured using nuclear magnetic resonance (NMR) technology at Chengdu College core facility. Epididymal fat pads were excised and adipocytes were isolated. Cells were then fixed using 2% OsO4 in PBS overnight at 37°C [2].

Data set [2] has as its system mice fed a high-fat diet. The data set can be described thus: Indirect energy expenditure and physical activity measurement. The format is in vivo. The following applies: after 12 weeks daily i.p. 5 mg/kg on high-fat diet; for Oxygen consumption VO2: vehicle 4.15 ± 0.55; for Ambulatory day activity / Ambulatory night activity: photobeam break counts; for Ambulatory day activity: vehicle 2,069 ± 705; for Ambulatory night activity: vehicle 6,289 ± 1,216. As to the method:
as §1, §2
After receiving 12 weeks of treatment as described above, rates of oxygen consumption (VO2) was measured using a four-chamber indirect calorimeter (Langguan, China, air flow of 0.5 l/min). A total of 2-hour measurement for each animal was conducted at 15-minuate intervals under room temperature (22°C). Ambulatory activity was estimated by counting the number of photobeam breaks in a three-sensor chamber instrument (Rui Pharm, China), and the cumulative ambulatory activity counts were recorded every hour. A total of 12 h-day time and 12 h-night activity were recorded for each animal.

A short description of data set [3]: Pharmacokinetic studies, plasma concentration after i.p. injection. The following applies: mice, i.p. 4 mg/kg; for Cmax: male, C57BL/6, mouse, plasma, ip, observed in 60 min, read-out: maximum concentration in plasma; for plasma concentrations compared to the parental peptides 1 and 2: at each time point after 1 hour. Format: in vivo. As to the method: as §1
Peptides (1, 3, 10, 34, 2, 60, 49, and 51) were dissolved in sterile aqueous 5% dextrose and administered to mice by i.p. injection (4 mg/kg). Blood samples were collected from the tail tip at 0, 0.5, 1, 6, 12, 18, 24 and 48 hours. Plasma samples were harvested by centrifugation and stored at -80°C until assayed. Peptide concentrations in plasma were determined by Reversed-Phase High-Performance Liquid Chromatography (RP-HPLC) with electrospray ionization mass spectrometric ([…]) detection. Samples were assayed with a series of 8 calibration standards of peptide in plasma at concentrations ranging from 50 to 6000 μg/L. Peptide concentrations were determined by comparing to the standards.

Data set [4] has as its system mice fed a high-fat diet. Put plainly: Glucose tolerance test after 12 weeks of treatment on high-fat diet. Format: in vivo. The following applies: overnight fasted mice, 2 g/kg glucose i.p., after 12 weeks daily i.p. 5 mg/kg on high-fat diet. As to the method: as §1, §2
After receiving 12 weeks of treatment as described above, glucose tolerance tests were performed in overnight fasted mice. Each mouse received a 2 g/kg glucose through i.p. Blood samples were obtained from the tail tip at 0, 30, 60, 90, and 120 min. Insulin concentrations were measured using mouse insulin Elisa kits (ChrystalChem) using mouse standards. Glucose levels were measured using a glucometer (Roche).

The test system of another data set is mice. Put plainly: Acute toxicity in mice. Format: in vivo. The following applies: up to 15 mg/kg i.p.; for signs of acute toxicity: 72 hours; for death of animals: another 14 days following the initial examination; for H&E staining of livers, spleens and kidneys: end of experiment. As to the method:
as §1
The control group (n = 10) received vehicle only. Eight groups (10 mice each) were treated with increasing doses of either peptide 1, 3, 10, 34, 2, 60, 49, and 51 up to 15 mg/kg by i.p. Number of death, sedation, spontaneous motor activity, alertness, ptosis, dyspnea, convulsion, diarrhea, urination, postural reflex, piloerection, nociception, grooming, vocalization, rearing, climbing and aggression were observed every 12 hours for 72 h. Animals were maintained for another 14 days after the initial examination. We planned to sacrifice the animals if they show severe signs of pain or distress, a body weight loss in excess of 15% of its body weight, or a deterioration of the body condition score to BC2(-) or below. However, none of the animals qualified for the mentioned the symptoms. No animals died during the whole study. At the end of the experiment, animals were euthanized by CO2 asphyxiation followed by cervical dislocation, the livers, spleens and kidneys were collected and formalin-fixed paraffin-embedded for H&E staining.

The term Ki denotes the dissociation constant of the complex between target and ligand, obtained from inhibition or displacement. `CC(=O)N1CCC[C@H]1C(=O)N[C@@H](Cc1cccc(F)c1)C(=O)N[C@@H](CCCCN)C(=O)N1CCC[C@H]1C(=O)N1CCC[C@H]1C(N)=O` [Peptide 10, Ac-P(h)KPP-NH2] (Ac-P[Phe(3-F)]KPP-NH2) gave a Ki at Cbl (RING) protein of 1800 ± 800 nM. In the data set with mice fed a high-fat diet [1], the “body weight gain vs vehicle, parental and negative control peptide groups” value (“body weight gain vs vehicle” below) is given as “significant differences in body weight gain”; the “percentage of perigonadal fat mass” value is listed as 3.5 ± 0.5%; the adipocyte volume amounted to 295 ± 31 pL. In the data set on mice fed a high-fat diet [2], the “Oxygen consumption VO2” value was 5.92 ± 0.36 mL/g/h, the Ambulatory day activity was 3,512 ± 923 per 12 h and the Ambulatory night activity is reported as 12,896 ± 2,469 per 12 h. Also, in data set [3], the Cmax is 4520 ng/mL; the “plasma concentrations compared to the parental peptides 1 and 2” value is listed as “greater plasma concentrations”. For the same compound, in the data set with mice fed a high-fat diet [4], the “blood insulin levels compared to the vehicle group” value is on record as “significant reduction in blood insulin levels” and the “glucose tolerance compared to the vehicle group” value is “better glucose tolerance”. In the data set with mice, the “signs of acute toxicity” value is listed as “did not show vital signs of acute toxicity”; the death of animals result is “None of the animals died”; the “H&E staining of livers, spleens and kidneys” value (shortened to “H&E staining of livers”) is given as “does not show any sign of injuries”.

For the compound `CC(=O)N1CSC[C@H]1C(=O)N[C@@H](Cc1cccc(F)c1)C(=O)N[C@@H](CCCCN)C(=O)N1CCC[C@H]1C(=O)N1CCC[C@H]1C(N)=O` [Peptide 34, Ac-(r) (h)KPP-NH2] (Ac-[Thz][Phe(3-F)]KPP-NH2), the Ki on Cbl (RING) protein amounted to 1500 ± 400 nM. Besides, in the data set with mice fed a high-fat diet [1], the “body weight gain vs vehicle” value is “significant differences in body weight gain”; the “percentage of perigonadal fat mass” value is 3.0 ± 0.9%; the adipocyte volume came out at 258 ± 29 pL. In the data set with mice fed a high-fat diet [2], the “Oxygen consumption VO2” value turned out to be 5.88 ± 0.85 mL/g/h and the Ambulatory day activity is 3,485 ± 864 per 12 h. Also, in data set [3], the Cmax is 5020 ng/mL; the “plasma concentrations compared to the parental peptides 1 and 2” value is listed as “greater plasma concentrations”. Also, in the data set with mice fed a high-fat diet [4], the “blood insulin levels compared to the vehicle group” value is recorded as “significant reduction in blood insulin levels” and the “glucose tolerance compared to the vehicle group” value is given as “better glucose tolerance”. Moreover, in the data set on mice, the “signs of acute toxicity” value is “did not show vital signs of acute toxicity”; the death of animals entry is reported as “None of the animals died”; the “H&E staining of livers” value is listed as “does not show any sign of injuries”.

`CC(=O)N[C@@H](CCCCN)C(=O)N1CSC[C@H]1C(=O)N[C@@H](C)C(=O)N[C@H](C(=O)N[C@@H](CCCCN)C(N)=O)[C@@H](C)O` [Peptide 49, Ac-K(r)ATK-NH2] (Ac-K[Thz]ATK-NH2): the affinity at Cbl (RING) protein, expressed as Ki, was 2900 ± 1200 nM. Moreover, in the data set with mice fed a high-fat diet [1], the “body weight gain vs vehicle” value is “significant differences in body weight gain”; the “percentage of perigonadal fat mass” value is 3.9 ± 0.4%; the adipocyte volume is listed as 230 ± 38 pL. Besides, in the data set with mice fed a high-fat diet [2], the “Oxygen consumption VO2” value stood at 6.12 ± 0.58 mL/g/h, the Ambulatory day activity was 4,012 ±1,207 per 12 h and the Ambulatory night activity is 20,126 ± 2,914 per 12 h. Further, in data set [3], the Cmax came to 4680 ng/mL; the “plasma concentrations compared to the parental peptides 1 and 2” value was “greater plasma concentrations”. Besides, in the data set with mice fed a high-fat diet [4], the “blood insulin levels compared to the vehicle group” value is “significant reduction in blood insulin levels” and the “glucose tolerance compared to the vehicle group” value was “better glucose tolerance”. Besides, in the data set with mice, the “signs of acute toxicity” value is “did not show vital signs of acute toxicity”; the death of animals entry is listed as “None of the animals died”; the “H&E staining of livers” value was “does not show any sign of injuries”.
